In assay [1] the target is anti-digoxin 26-10 murine monoclonal antibody. To be noted: literature (Schildbach et al., 1993); cited from earlier work.
In assay [2] the test system is anti-digoxin single chain Fv scFv(Dig) derived from anti-digoxin 26-10 murine monoclonal antibody, wild type (WT), SEQ ID NO:132. The format is binding. Conditions: for kon: hapten-BSA conjugate immobilized on CM5 chip. On the procedure: (§1) Single chain Fv mutants were produced and purified according to Burks (Burks and Iverson, 1995). The scFv genes from second round overlap extension PCR were ligated into pET25b plasmid and transformed into E. Coli BL21 (DE3) strain. Inclusion bodies that consist of scFvs were isolated from cell lysates and dissolved in 8 M urea. Soluble scFvs were purified by a metal chelating column (IMAC) and refolded by dialyzing against Tris buffer (50 mM Tris. HCl, pH 7.4, 500 mM KCl, 10% glycerol). Protein concentrations were determined by OD280 (Σ=44850) (Pace et al., 1995; Nieba et al., 1989). For the kinetics measurement, antibodies were further purified by a size exclusion gel filtration column Sepharose-75 (Pharmacia Biosensor AB, Sweden) to remove any dimeric or polymeric proteins.
(§2) The digoxin-BSA, digitoxin-BSA, digoxigenin-BSA and ouabain-BSA conjugates were immobilized on the surface of a sensor chip CM5 (approximately 400 RU) following the standard protocol from Pharmacia Biosensor. All kinetics experiments were performed in buffer containing 150 mM NaCl, 10 mM HEPES, 3.4 mM EDTA, and 0.005% P20, pH 7.4 at 25° C. with a flowrate of 60 μl/min (Myszka et al., 1997; Zeder-Lutz et al., 1997; Oddie et al., 1997). ScFv proteins over the concentration range of 25 nM to 400 nM were added to the chip for the association rate measurements. To prevent the rebinding of antibodies on the chip surface, soluble haptens (up to 1 mM) were added into elution buffer for the dissociation rate measurements (Schier et al., 1996). The antibody bound chip was regenerated by 50% ethylene glycol, pH 10. The values of association and dissociation rate of antibodies were calculated using BIAevaluation software from Pharmacia Biosensor. kon was determined from a plot of (ln(dR/dt))/t versus concentration (Karlson et al., 1991). koff was determined from a plot of ln(Ro/R) versus time.
(§3) In additional studies, values for the association and dissociation rate constants (kon and koff, respectively) were measured using a BIAcore 1000 for the wild-type and 14 selected mutant scFv antibodies. […] The selected scFv antibodies were expressed and purified following the procedure described by Burks and Iverson (1995). In each case, care was taken to insure that the kinetic values measured on the BlAcore are free of artifacts due to rebinding or avidity effects arising from multimeric scFvs.

For assay [3], the system named is anti-digoxin 26-10 scFv(Dig) variant HC100H (H:Trp-100→His). The format is binding, murine. Conditions: for kon: hapten-BSA conjugate immobilized on CM5 chip. On the procedure:
as §1, §2, §3

For assay [4], the system named is anti-digoxin 26-10 scFv(Dig) variant HC100K (H:Trp-100→Lys). The assay is classed as binding, murine. To be noted: for kon: hapten-BSA conjugate immobilized on CM5 chip. The procedure: as §1, §2, §3
The test system of assay [5] is anti-digoxin 26-10 scFv(Dig) variant HC100R (H:Trp-100→Arg). The assay is classed as binding, murine. Conditions: for kon: hapten-BSA conjugate immobilized on CM5 chip. The procedure:
as §1, §2, §3

Assay [6] relates to anti-digoxin 26-10 scFv(Dig) variant HC50F (H:Tyr50→Phe). The assay is classed as binding, murine. To be noted: for kon: hapten-BSA conjugate immobilized on CM5 chip. On the procedure: as §1, §2, §3
The subject of assay [7] is anti-digoxin 26-10 scFv(Dig) variant HC9ST (heavy chain mutant). The assay is classed as binding, murine. Conditions: for kon: hapten-BSA conjugate immobilized on CM5 chip. The procedure: as §1, §2, §3
Assay [8] deals with anti-digoxin 26-10 scFv(Dig) variant LC94F (light chain residue 94→Phe). The assay is classed as binding, murine. To be noted: for kon: hapten-BSA conjugate immobilized on CM5 chip. The procedure: as §1, §2, §3
The test system of assay [9] is anti-digoxin 26-10 scFv(Dig) variant LC94Y (L:Val-94→Tyr). The assay is classed as binding, murine. Conditions: for kon: hapten-BSA conjugate immobilized on CM5 chip. On the procedure:
as §1, §2, §3

Assay [10] relates to anti-digoxin 26-10 scFv(Dig) variant LC96F (L:Pro-96→Phe). The assay is classed as binding, murine. The procedure: as §1, §2, §3
Setting [11] is: SPR, hapten-BSA conjugate on chip, pH 7.4, 25° C.
Where [12] appears, read: SPR, hapten-BSA conjugate on chip, soluble hapten in elution buffer, pH 7.4, 25° C.

SMILES strings stand for the structures. Read-outs that look alike come from different tables or passages of the source.

Consider five molecules from patent publication US6180341A, “In vitro scanning saturation mutagenesis of proteins” (priority 1998, dated 2001).

As for `C[C@]12CC[C@H](O)C[C@H]1CC[C@@H]1[C@@H]2C[C@@H](O)[C@]2(C)[C@@H](C3=CC(=O)OC3)CC[C@]12O` [digoxigenin], the Ka entry in assay [1] was “approximately 9×10^9 M^-1”.

Take `C[C@H]1O[C@@H](O[C@H]2[C@@H](O)C[C@H](O[C@H]3[C@@H](O)C[C@H](O[C@H]4CC[C@@]5(C)[C@H](CC[C@@H]6[C@@H]5C[C@@H](O)[C@]5(C)[C@@H](C7=CC(=O)OC7)CC[C@]65O)C4)O[C@@H]3C)O[C@@H]2C)C[C@H](O)[C@@H]1O` [Digoxin, digoxin]: the kon in assay [2] (SPR, pH 7.4, 25° C.) stood at 1.2e+08 M⁻¹ s⁻¹; in assay [3] (SPR, pH 7.4, 25° C.), 1e+06 M⁻¹ s⁻¹; in assay [4] (SPR, pH 7.4, 25° C.) it was 940000 M⁻¹ s⁻¹; in assay [5] (SPR, pH 7.4, 25° C.), 1.3e+06 M⁻¹ s⁻¹; in [6] (SPR, pH 7.4, 25° C.) it was 1.5e+06 M⁻¹ s⁻¹; in assay [7] (SPR, pH 7.4, 25° C.) it was 1.4e+06 M⁻¹ s⁻¹. Besides, the kon stood at 1.2e+06 M⁻¹ s⁻¹ in assay [8] (SPR, pH 7.4, 25° C.); 1.2e+06 M⁻¹ s⁻¹ in assay [9] (SPR, pH 7.4, 25° C.); 1e+08 M⁻¹ s⁻¹ in [10] (SPR, hapten-BSA conjugate immobilized on CM5 chip, pH 7.4, 25° C.). Also, the koff in assay [2] (pH 7.4) is given as 7.0 × 10^-4; in assay [3] (pH 7.4), 2.0 × 10^-3; in [4] (pH 7.4), 8.0 × 10^-2; in [5] (pH 7.4), 5.0 × 10^-3; in [6] (pH 7.4), 5.8 × 10^-4; in [7] (pH 7.4) it was 5.4 × 10^-3. Moreover, the figures for the koff in assay [8] (pH 7.4), in assay [9] (pH 7.4) and in assay [10] (pH 7.4) were 1.9 × 10^-3, 5.2 × 10^-3 and 2, respectively. The figures for the Ka in assay [10] (setting [11]) and in [1] were 500000 M⁻¹ and “approximately 9×10^9 M^-1”, respectively.

With `C[C@H]1O[C@@H](O[C@H]2[C@@H](O)C[C@H](O[C@H]3[C@@H](O)C[C@H](O[C@H]4CC[C@@]5(C)[C@H](CC[C@@H]6[C@@H]5CC[C@]5(C)[C@@H](C7=CC(=O)OC7)CC[C@]65O)C4)O[C@@H]3C)O[C@@H]2C)C[C@H](O)[C@@H]1O` [Digitoxin, digitoxin], the kon in [2] (SPR, pH 7.4, 25° C.) is 1e+06 M⁻¹ s⁻¹; in [5] (SPR, pH 7.4, 25° C.) it was 930000 M⁻¹ s⁻¹; in assay [6] (SPR, pH 7.4, 25° C.) it was 960000 M⁻¹ s⁻¹; in assay [7] (SPR, pH 7.4, 25° C.), 1e+06 M⁻¹ s⁻¹; in assay [8] (SPR, pH 7.4, 25° C.) it was 1.3e+06 M⁻¹ s⁻¹; in assay [9] (SPR, pH 7.4, 25° C.), 1.15e+06 M⁻¹ s⁻¹. In addition, the koff is listed as 1.3 × 10^-3 in assay [2] (setting [12]); 9.7 × 10^-3 in assay [3] (setting [12]); 0.09 in assay [4] (setting [12]); 8.2 × 10^-3 in assay [5] (setting [12]); 1.7 × 10^-3 in [6] (setting [12]); 0.11 in assay [7] (setting [12]). The koff is on record as 1.3 × 10^-3 in assay [8] (setting [12]), 2.7 × 10^-3 in assay [9] (setting [12]) and 0.014 in [10] (setting [12]). The Ka in assay [3] (setting [11]) was 0 M⁻¹; in assay [4] (setting [11]), 0 M⁻¹; in assay [7] (setting [11]), 9e+06 M⁻¹; in assay [10] (setting [11]), 8.4e+07 M⁻¹; in assay [1] it was “approximately 9×10^9 M^-1”.

Turning to `C[C@]12CC[C@H](O)C[C@H]1CC[C@@H]1[C@@H]2CC[C@]2(C)[C@@H](C3=CC(=O)OC3)CC[C@]12O` [Digitoxigenin], the kon in [2] (SPR, pH 7.4, 25° C.) was 1e+06 M⁻¹ s⁻¹; in assay [3] (SPR, pH 7.4, 25° C.), 1e+06 M⁻¹ s⁻¹; in [4] (SPR, pH 7.4, 25° C.) it was 1e+06 M⁻¹ s⁻¹; in assay [6] (SPR, pH 7.4, 25° C.), 1e+06 M⁻¹ s⁻¹; in assay [8] (SPR, pH 7.4, 25° C.) it was 1e+06 M⁻¹ s⁻¹; in assay [9] (SPR, pH 7.4, 25° C.), 1.1e+06 M⁻¹ s⁻¹. Further, the koff in [2] (setting [12]) is recorded as 2.3 × 10^-2; in [3] (setting [12]) it was 9.7 × 10^-2; in [4] (setting [12]), 1.48; in assay [5] (setting [12]), 1.7 × 10^-1; in [6] (setting [12]), 2.2 × 10^-2; in assay [7] (setting [12]), 1.00. Further, the koff in [8] (setting [12]) is given as 8.9 × 10^-2; in assay [9] (setting [12]) it was 1.8 × 10^-1; in [10] (setting [12]), 0.169. Moreover, the Ka came to 1e+08 M⁻¹ in assay [3] (setting [11]), 4.2e+07 M⁻¹ in assay [5] (setting [11]), 4.5e+08 M⁻¹ in [6] (setting [11]) and 7e+08 M⁻¹ in assay [7] (setting [11]).

Take `C[C@@H]1O[C@@H](O[C@H]2C[C@@H](O)[C@]3(CO)[C@H]4[C@H](O)C[C@]5(C)[C@@H](C6=CC(=O)OC6)CC[C@]5(O)[C@@H]4CC[C@]3(O)C2)[C@H](O)[C@H](O)[C@H]1O` [Ouabain, ouabain]: the kon in assay [2] (SPR, pH 7.4, 25° C.) was 1e+06 M⁻¹ s⁻¹; in assay [3] (SPR, pH 7.4, 25° C.), 1e+06 M⁻¹ s⁻¹; in assay [5] (SPR, pH 7.4, 25° C.), 1e+06 M⁻¹ s⁻¹; in [6] (SPR, pH 7.4, 25° C.), 1e+06 M⁻¹ s⁻¹; in assay [7] (SPR, pH 7.4, 25° C.), 100000 M⁻¹ s⁻¹; in [8] (SPR, pH 7.4, 25° C.) it was 1e+06 M⁻¹ s⁻¹. Also, the kon in [9] (SPR, pH 7.4, 25° C.) came to 1e+06 M⁻¹ s⁻¹. The koff in [2] (setting [12]) is on record as 1.5 × 10^-2; in [3] (setting [12]) it was 0.09; in [4] (setting [12]), 0.60; in assay [5] (setting [12]) it was 0.12; in assay [6] (setting [12]), 0.013; in [7] (setting [12]), 0.12. Further, the koff in assay [8] (setting [12]) is 1.0 × 10^-2; in assay [9] (setting [12]) it was 1.7 × 10^-2; in [10] (setting [12]) it was 0.3. The Ka in assay [3] (setting [11]) came to 1.1e+07 M⁻¹; in assay [5] (setting [11]), 8.3e+06 M⁻¹; in assay [6] (setting [11]), 7.9e+07 M⁻¹; in assay [7] (setting [11]), 6.7e+06 M⁻¹. For the same molecule, the “fold lower affinity than for digoxin, digitoxin and digoxigenin” value in assay [1] was 42 fold.

Broadly, the kon is a measure of how fast the partners come together. Low readings indicate slower complex formation, high ones faster complex formation.
